pIC50: −log10 of the molar value. Marks after values point to notes of the source that are not given here.
Tests used:
EGFR = molecular target: T1, EGFR (Homo sapiens, UniProt P00533); assay: Inhibitory effect on tyrosine kinase activity of EGFR; type: biochemical; settings: EGFR 40 ng/ml, ATP 10 μM, 30 min
T1 construct: purchased Invitrogen Company PV3872
Protocol: EGFR: Invitrogen Company, Catalogue No. PV3872
pGT (poly(glutamic acid-tyrosine)): Sigma-Aldrich Company, Catalogue No. P0275
The assay method is briefly described as follows.
3.1.1 At 4° C., 96-well microtiter plate was coated with 0.2 mg/mL pGT (as the substrate of enzyme) dissolved in PBS (phosphate buffer) overnight. Unbound pGT was washed away with a washing solution (0.05% Tween −20 in PBS), and the plate was dried in the air at room temperature for 2 h.
3.1.2 The enzyme reaction was performed in 50 μl reaction system containing 50 mM HEPEs (N-(2-hydroxyethyl)piperazine-N′-2-ethanesulfonic acid), pH 7.5, 0.01% BRIJ-35 (polyoxyethylene lauryl ether), 10 mM MgCl2, 1 mM EGTA (ethylene glycol bis(2-aminoethyl ether)tetraacetic acid), with certain concentrations of ATP (adenosine triphosphate) and kinase, and proceeded for 30 min at room temperature. The phosphate group at the terminal of ATP can be transferred to tyrosine residues of pGT by kinase catalysis so as to phosphorylate the tyrosine residues.
3.1.3 A final concentration of 1% SDS (sodium dodecyl sulfate) was added to terminate the reaction. The phosphorylated tyrosine residues were identified using pY-20. HRP at the end of the antibody enabled TMB to take on color. Then equal amount of 2 N H2SO4 was added to terminate the reaction. OD value, which is positively correlated with the phosphorylation degree of tyrosine residues of pGT, was measured at 450 nm
3.2 The concentrations of the kinase and substrate ATP were determined with reference to the literature “Optimization of a LanthaScreen Kinase assay for EGFR (ErbB1)”(https://tools.lifetechnologies.com/content/sfs/manuals/EGFR_LanthaScreen_actity_Europium.pdf), published by Invitrogen Corporation. The selection criteria for the final concentrations are that the concentration of kinase enabling the yield of the product within the linear range of the detection system and the concentration of ATP approching Km (Michaelis constant) value.
3.3.1 An appropriate amount of a compound was dissolved in DMSO (dimethylsulfoxide) to prepare 2 mM stock solution. Then the stock solution was diluted with DMSO to obtain a working solution with a 50-fold concentration of the highest test concentration, and subjected to a 4-fold gradient dilution to obtain seven concentrations in total.
5 μl 10-fold concentration of ATP dissolved in H2O (the concentration of ATP in EGFR assay is 100 μM, and in Her2 assay is 400 μM) was added to initiate the enzyme reaction followed by reaction at room temperature for 30 min
The mean value of inhibition rate and SD (standard deviation) were determined by duplicate wells. A curve with the concentration of the compound as abscissa and being in logarithmic distribution and the mean value of inhibition rate as ordinate was plotted and fitted using four-parameter logistic function.

[1] = Bioavailability assay in rats, Experiment II (dihydrobromide); type: in vivo; settings: Wistar rats
[2] = test system: HCC827 human non-small cell lung cancer xenograft; assay: HCC827 human non-small cell lung cancer xenograft model; type: in vivo, nude mice; settings: HCC827 xenograft, 50 mg/kg intragastric daily for 14 days
Protocol: (§1) Tumor cells were cultured in an incubator at 37° C. with 5% CO2 using MEM medium containing 10% inactivated fetal calf serum, 100 U/ml penicillin and 100 μg/ml streptomycin. The tumor cells in logarithmic growth phase were collected, adjusted to an appropriate density and injected subcutaneously into nude mice (0.2 ml per mouse). An xenograft model was established after a tumor was formed in the nude mice and passaged in vivo for more than three generations.
(§2) The above-mentioned tumor-bearing mice were sacrificed by cervical dislocation. The tumor was taken out and cut into small tumor pieces (about 2 mm×2 mm×2 mm) under sterile conditions. The small tumor pieces were inoculated subcutaneously into nude mice on the right shoulder blade with a trocar. […] The animals in each group were subjected to intragastric administration daily for 14 consecutive days. The day of grouping is assigned as day 0.
(§3) Tumor volume is calculated as: volume=0.5×long diameter×short diameter^2. The relative tumor volume (RTV) was calculated based on the measurements as: RTV=Vt/V0, wherein V0 is the tumor volume measured when the animals were grouped to be administrated (i.e., d0), and Vt is the tumor volume when each measurement was taken. Relative tumor proliferation rate T/C was calculated based on relative tumor volume, in which T is the mean value of the relative tumor volume of the treatment group, and C is the mean value of the relative tumor volume of the solvent control group. T/C was calculated as follows: T/C=TRTV/CRTV×100% (TRTV: RTV of the treatment group; CRTV: RTV of the solvent control group) Inhibition rate (%)=(mean tumor weight of the solvent control group−mean tumor weight of the treatment group)/mean tumor weight of the solvent control group x 100%. Percentage of body weight change=Wn/W0×100% (Wn: mean body weight of experimental animals in each group at day n, W0: mean body weight of experimental animals in each group at day 0).
(§4) One-Way ANOVA test was conducted in SPSS13.0, performing statistical analysis between groups.

[3] = test system: A431 human epidermal carcinoma xenograft; assay: A431 human epidermal carcinoma xenograft model; type: in vivo, nude mice; settings: A431 xenograft, 50 mg/kg intragastric once a day for 14 days
Protocol: as §1, with “µg/ml” for “μg/ml”
as §2, with “mice” for “mice on the right shoulder blade”, “once a day” for “daily”
Tumor volume is calculated as: volume =0.5×long diameter×short diameter^2. The relative tumor volume (RTV) was calculated based on the measurements as: RTV=Vt/V0, wherein V0 is the tumor volume measured when the animals were grouped to be administrated (i.e., d0), and Vt is the tumor volume when each measurement was taken. Relative tumor proliferation rate T/C was calculated based on relative tumor volume, in which T is the mean value of the relative tumor volume of the treatment group, and C is the mean value of the relative tumor volume of the solvent control group. T/C was calculated as follows: T/C=TRTV/CRTV×100% (TRTV: RTV of the treatment group; CRTV:
RTV of the solvent control group) Inhibition rate (%)=(mean tumor weight of the solvent control group−mean tumor weight of the treatment group)/mean tumor weight of the solvent control group×100%. Percentage of body weight change=Wn/W0×100% (Wn: mean body weight of experimental animals in each group at day n, W0: mean body weight of experimental animals in each group at day 0).
as §4

[4] = test system: FaDu human head and neck cancer xenograft; assay: FaDu human head and neck cancer xenograft model; type: in vivo, nude mice; settings: FaDu xenograft, 50 mg/kg intragastric daily for 14 days
Protocol: as §1, with “after” for “after a”
as §2
as §3, with “group×100%.” for “group x 100%.”
as §4

[5] = 20 mg/kg tail intravenous injection
[6] = both sexes, rat, plasma, po, 20 mg/kg intragastric gavage
[7] = both sexes, rat, plasma, 20 mg/kg tail intravenous injection

## N-[4-(3-chloro-4-fluorophenylamino)-7-(2-methoxyethoxy)quinazolin-6yl]-2-[piperidin-4-ylidene]acetamide disulfate [Compound 5]
EGFR
  pIC50: 9.52

## COCCOc1cc2ncnc(Nc3ccc(F)c(Cl)c3)c2cc1NC(=O)C=C1CCN(CCOC)CC1 [Compound 8, N-[4-(3-chloro-4-fluorophenylamino)-7-(2-methoxyethoxy)quinazolin-6-yl]-2-[1-(2-methoxyethyl)piperidin-4-ylidene]acetamide diphenylsulfonate]
EGFR
  pIC50: 9.10

## COCCOc1cc2ncnc(Nc3ccc(F)c(Cl)c3)c2cc1NC(=O)C=C1CCN(CCOC)CC1 [Compound 10, N-[4-(3-chloro-4-fluorophenylamino)-7-(2-methoxyethoxy)quinazolin-6-yl]-2-[1-(2-methoxyethyl)piperidin-4-ylidene]acetamide dimaleate]
EGFR
  pIC50: 9.52

## Br.Br.COCCOc1cc2ncnc(Nc3ccc(F)c(Cl)c3)c2cc1NC(=O)C=C1CCN(CCOC)CC1 [Example 5, N-[4-(3-chloro-4-fluorophenylamino)-7-(2-methoxyethoxy)quinazolin-6-yl]-2-[1-(2-methoxyethyl)piperidin-4-ylidene]acetamide dihydrobromide]
[1]; 20 mg/kg intragastric gavage
  CLz/F: 66.48 mL/min/kg
  t½z: 5.564 h
[1]; [5]
  CLz: 25.8 mL/min/kg
  t½z: 5.514 h
[1]; both sexes, rat, plasma, oral, 20 mg/kg ig vs 20 mg/kg iv
  bioavailability: 42.8%
[1]; [6]
  AUC(0-inf): 5550 ng·h/mL
  AUC(0-t): 5240 ng·h/mL
  Cmax: 368 ng/mL
  Tmax: 6 h
[1]; both sexes, rat, plasma, po, 20 mg/kg intragastric gavage, read-out: Vz/F
  Vd/F: 30.1 L/kg
[1]; [7]
  AUC(0-inf): 13000 ng·h/mL
  AUC(0-t): 12700 ng·h/mL
  Cmax: 3240 ng/mL
  Tmax: 0.083 h
[1]; both sexes, rat, plasma, 20 mg/kg tail intravenous injection, read-out: Vz
  Vd: 12.2 L/kg

## COCCOc1cc2ncnc(Nc3ccc(F)c(Cl)c3)c2cc1NC(=O)C=C1CCN(CCOC)CC1 [Compound 11, N-[4-(3-chloro-4-fluorophenylamino)-7-(2-methoxyethoxy)quinazolin-6yl]-2-[1-(2-methoxyethyl)piperidin-4-ylidene]acetamide di(p-toluenesulfonate)]
EGFR
  pIC50: 9.40

## C#Cc1cccc(Nc2ncnc3cc(OCCOC)c(OCCOC)cc23)c1 [Tarceva, reference compound]
[2]
  Tumor Weight (x ± S.D.): 0.067 ± 0.055 g
[2]; end of the assay
  T/C: 5.0%
  Tumor Volume (x ± S.D.): 55.3 ± 46.3*** mm^3
[3]
  Tumor Weight (x ± S.D.): 0.281 ± 0.252 g
[3]; by tumor weight
  Tumor Inhibitor Rate: 62.0%
[3]; end of the assay
  T/C: 47.3%
  Tumor Volume (x ± S.D.): 498.9 ± 263.4** mm^3
[4]
  Tumor Weight (x ± S.D.): 0.650 ± 0.267 g
[4]; by tumor weight
  Tumor Inhibitor Rate: 40.6%
[4]; end of the assay
  T/C: 59.9%
  Tumor Volume (x ± S.D.): 709.9 ± 274.9** mm^3

## COCCOc1cc2ncnc(Nc3ccc(F)c(Cl)c3)c2cc1NC(=O)C=C1CCN(CCOC)CC1 [Compound 9, N-[4-(3-chloro-4-fluorophenylamino)-7-(2-methoxyethoxy)quinazolin-6-yl]-2-[1-(2-methoxyethyl)piperidin-4-ylidene]acetamide difumarate]
EGFR
  pIC50: 9.30

## COCCOc1cc2ncnc(Nc3ccc(F)c(Cl)c3)c2cc1NC(=O)C=C1CCN(CCOC)CC1 [Compound 6, N-[4-(3-chloro-4-fluorophenylamino)-7-(2-methoxyethoxy)quinazolin-6-yl]-2-[1-(2-methoxyethyl)piperidin-4-ylidene]acetamide dinitrate]
EGFR
  pIC50: 9.22

From patent publication US9840494B2, “Quinazoline derivative” (Tianjin Hemay Oncology Pharmaceutical Co., Ltd., priority 2013, dated 2017)
